The test system of one assay is Syrian hamsters. Kind of assay: Hamster growth (body weight) with daily leupeptin injection. The class given is in vivo. Particulars: for Hamster Weight: daily injection 0.8 mg leupeptin in 1 ml saline (about 20 mg/Kg per day). The protocol: 20 Syrian hamsters 3 weeks old and initially weighing an average of 40 grams each were subdivided into two groups. The groups were fed similarly. All animals received a daily injection of 1 ml of isotonic saline solution except that the saline solution administered to the test group had 0.8 mg of leupeptin dissolved therein, corresponding to about 20 mg/Kg per day based on the initial weight of the animals. The animals were weighed weekly and the results obtained were as follows: […]

For a further assay, the system named is pea seedlings. Kind of assay: Pea seedling growth (height) with leupeptin in watering. The note with it: 10 mg leupeptin in 5 ml water per plant per day to the soil. The class given is in vivo. As for the experimental part:
20 pea seedlings 4 days after planting of seed and each containing an average of 5 leaves were divided into two matched groups. 5 ml of water per plant per day was supplied to the soil in which the control group was growing. The test group received the same 5 ml of water but 10 mg of leupeptin was dissolved therein. The lighting and other growth conditions were the same and the plant heights were measured daily. The first measurement was made on the day that the leupeptin-treated plants reached a height of about 1 cm, a practical minimum measuring height.

The source of these data is patent publication US4510130A, “Promoting animal and plant growth with leupeptin” (Genetic Diagnostics Corporation, priority 1983, dated 1985).

Turning to `CC(=O)N[C@@H](CC(C)C)C(=O)N[C@@H](CC(C)C)C(=O)N[C@H](C=O)CCCNC(=N)N` [Leupeptin, leupeptin], the “Hamster Weight” value with Syrian hamsters (Weeks 3) stood at 47 ± 3 grams; in the assay with Syrian hamsters (Weeks 6) it was 75 ± 5 grams; in the assay with Syrian hamsters (Weeks 9), 87 ± 6 grams; in the assay on Syrian hamsters (Weeks 12), 95 ± 9 grams; with Syrian hamsters (Weeks 15), 105 ± 8 grams; with Syrian hamsters (Weeks 18), 110 ± 8 grams. The “Hamster Weight” value with Syrian hamsters (Weeks 21) came to 115 ± 7 grams; in the assay with Syrian hamsters (Weeks 27), 122 ± 10 grams; in the assay on Syrian hamsters (Weeks 32), 130 ± 9 grams. Also, the “Increase of hamster weight versus control” value with Syrian hamsters (at all stages of development, about 20 mg/Kg per day by injection) was 10-15%. Besides, the “Muscle mass of isolated muscles” value in the assay on Syrian hamsters (muscles isolated from the treated hamsters) is “increased weight was attributable to a corresponding muscle mass increase”. For the same compound, the Pea seedling height in the assay on pea seedlings (Day 0) is 1 ± 0.2 cm; with pea seedlings (Day 1), 1.5 ± 0.1 cm; in the assay on pea seedlings (Day 4), 3.4 ± 0.2 cm; with pea seedlings (Day 6) it was 5.2 ± 0.5 cm; in the assay with pea seedlings (Day 10), 7.9 ± 0.5 cm; in the assay with pea seedlings (Day 12) it was 9.2 ± 0.6 cm. In the assay on pea seedlings (Day 15), this compound came in with a Pea seedling height of 12.1 ± 0.8 cm.
